Eleven compounds from ChEMBL document CHEMBL1201862, “PubChem BioAssay data set” (2004) can be followed below.

Experiment in all cases: DTP human tumour cell line panel, 48 h
Experiment [1] has as its system SK-OV-3.
Experiment [2] concerns Malme-3M.
For experiment [3], the system named is NCI-H23.
In experiment [4] the test system is SNB-75.
For experiment [5], the system named is NCI-H460.
Experiment [6] has as its system LOX IMVI.
In experiment [7] the test system is CCRF-CEM.
Experiment [8] concerns HCT-116.
Experiment [9] has as its system M14.
For experiment [10], the system named is SR.
Experiment [11] has as its system COLO 205.
The subject of experiment [12] is OVCAR-8.
The subject of experiment [13] is A498.
Experiment [14] relates to OVCAR-3.
Experiment [15] relates to LXFL 529.
The test system of experiment [16] is MOLT-4.
Experiment [17] concerns SK-MEL-28.
Experiment [18] concerns K562.
Experiment [19] deals with DU-145.
Experiment [20] deals with MCF7.

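Growth conditions: 96-well plates. Treatment: test compound, 48 hours, 5 concentrations. Analysis: linear interpolation between bracketing concentrations; unreached endpoints set to highest concentration. The concentration for 50% growth inhibition is given as GI50.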 Calls of active or inactive are those of the source. Cut-off read from the data, not from the text of the source: active = GI50 up to about 1.1 µM and inactive = higher. Some results are limits rather than exact numbers.

In general, GI50 refers to the concentration at which growth is held to half of that of the control. `CC(C)C/C(CC(=O)CCC(=O)Nc1ccccc1[N+](=O)[O-])=N\NC(=O)c1cc2ccccc2cc1O`: the GI50 in [1] was 79.6 µM (inactive); in [2], 42.6 µM (inactive); in experiment [3], 50.7 µM (inactive); in experiment [4], 37.7 µM (inactive); in [5], 33.7 µM (inactive); in experiment [6], 27 µM (inactive). Further, the GI50 in experiment [7] is 9.14 µM (inactive); in experiment [8], 49.1 µM (inactive); in experiment [9], 26.6 µM (inactive); in experiment [10], 30.2 µM (inactive); in experiment [11], 28.6 µM (inactive); in experiment [12], 23.1 µM (inactive). Further, the GI50 in [13] is 0.0357 µM (active); in experiment [14], 26.7 µM (inactive); in experiment [15], 29.7 µM (inactive); in experiment [16], 20.2 µM (inactive); in experiment [17], > 100 µM (inactive); in experiment [18], 25.9 µM (inactive).
In the case of `C/C=C(\CCOS(=O)(=O)c1ccc(C)cc1)[Si](C)(C)C`, the GI50 in experiment [1], in [2], in [3], in experiment [4], in [5] and in [6] was > 100 µM (inactive) in each case. In addition, the 50% growth inhibitory concentration (GI50) in experiment [7] was 0.115 µM (active); in experiment [8] it was > 100 µM (inactive); in experiment [9], > 100 µM (inactive); in experiment [10], > 100 µM (inactive); in experiment [11], > 100 µM (inactive); in experiment [12] it was > 100 µM (inactive). The GI50 in experiment [13], in experiment [14], in [15], in [16], in experiment [17] and in experiment [18] was > 100 µM (inactive) in each case.
Turning to `O=c1c2ccccc2nc(-c2ccccc2)n1NC(=S)Nc1ccc(Cl)cc1`, the GI50 in experiment [1] is > 100 µM (inactive); in experiment [2], > 100 µM (inactive); in [3] it was 53.6 µM (inactive); in experiment [4] it was 59.4 µM (inactive); in experiment [5], 59.4 µM (inactive); in experiment [6], > 100 µM (inactive). Further, the GI50 is 58.3 µM (inactive) in experiment [7]; 55.1 µM (inactive) in [8]; > 100 µM (inactive) in experiment [9]; 65.9 µM (inactive) in experiment [10]; > 100 µM (inactive) in experiment [11]; > 100 µM (inactive) in experiment [12]. The GI50 in [13] is > 100 µM (inactive); in [15], 48.6 µM (inactive); in experiment [16], 69 µM (inactive); in experiment [17] it was 24.1 µM (inactive); in experiment [18] it was 48.4 µM (inactive).
With `COc1ccc(C2CC(c3cc(C)ccc3O)=NC(N)=N2)cc1` (stereo not given), the GI50 in experiment [1], in [2], in experiment [3], in experiment [4], in experiment [5] and in experiment [6] was > 100 µM (inactive) in each case. Further, the GI50 in experiment [7], in [8], in experiment [9], in experiment [10], in [11] and in [12] was > 100 µM (inactive) in each case. Moreover, the GI50 in experiment [13], in [14], in [15], in experiment [16], in [17] and in experiment [18] was > 100 µM (inactive) throughout.
On to `CCOC12SC(Nc3ccc(C)cc3)=NN1C(=S)N(C)N=C2C` (stereo not given), for which the GI50 in experiment [3], in experiment [4], in [5], in experiment [6], in experiment [7] and in experiment [8] was > 100 µM (inactive) each time. Also, the GI50 in [9], in experiment [10], in experiment [11], in experiment [12], in experiment [13] and in experiment [15] was > 100 µM (inactive) in each case. The GI50 in [16], in experiment [17] and in experiment [18] was > 100 µM (inactive) in each case.
For the compound `Cc1ccc([S+]([O-])C(C)C(Cl)c2ccccc2)cc1` (stereo not given), the GI50 is > 100 µM (inactive) in experiment [1]; 72.3 µM (inactive) in experiment [3]; 48.6 µM (inactive) in experiment [4]; > 100 µM (inactive) in experiment [5]; > 100 µM (inactive) in experiment [6]; 47.6 µM (inactive) in [7]. Besides, the GI50 was > 100 µM (inactive) in experiment [8]; > 100 µM (inactive) in experiment [9]; 99.3 µM (inactive) in experiment [10]; 30.7 µM (inactive) in experiment [11]; 78 µM (inactive) in experiment [12]; > 100 µM (inactive) in [13]. The GI50 is 53.7 µM (inactive) in [14]; 81.1 µM (inactive) in experiment [15]; 55.7 µM (inactive) in [16]; > 100 µM (inactive) in [17]; 45.8 µM (inactive) in experiment [18].
Regarding `CSc1nc(SC)c2c(C(N)=S)n[nH]c2n1`, the GI50 in [1] was 23.6 µM (inactive); in experiment [2], 29.8 µM (inactive); in experiment [3], 23.8 µM (inactive); in experiment [4] it was 25.9 µM (inactive); in [5], 23.6 µM (inactive); in experiment [6] it was 24.1 µM (inactive). For the same compound, the GI50 in experiment [7] is 26.2 µM (inactive); in experiment [9], 31.9 µM (inactive); in [10], 30.7 µM (inactive); in experiment [11] it was 18.2 µM (inactive); in experiment [12] it was 28.8 µM (inactive); in [13], 24.5 µM (inactive). The GI50 was 22.1 µM (inactive) in experiment [14]; 29.6 µM (inactive) in [15]; 27 µM (inactive) in experiment [16]; 31.7 µM (inactive) in experiment [17]; 26.2 µM (inactive) in experiment [18].
As to `N#CC12CCC1C1CCCCC12N1CCSCC1` (stereo not given), the GI50 was > 10 µM (inactive) in experiment [3]; > 100 µM (inactive) in experiment [4]; > 100 µM (inactive) in experiment [5]; > 100 µM (inactive) in experiment [7]; > 100 µM (inactive) in experiment [8]; 60.5 µM (inactive) in experiment [10]. Moreover, the GI50 in experiment [11] was > 100 µM (inactive); in experiment [12], > 100 µM (inactive); in [13] it was > 100 µM (inactive); in experiment [14], > 100 µM (inactive); in experiment [15], > 100 µM (inactive); in experiment [16], 81.8 µM (inactive). Moreover, the GI50 in [17] was > 100 µM (inactive); in experiment [18] it was 76.6 µM (inactive).
Consider `COc1cc(/C=C/c2ccc(OC)c(OC)c2OC)cc(OC)c1OC`, for which the GI50 was 24.7 µM (inactive) in [1]; 20.2 µM (inactive) in experiment [2]; 23.6 µM (inactive) in experiment [3]; 10.8 µM (inactive) in experiment [4]; 20.3 µM (inactive) in experiment [5]; 16.1 µM (inactive) in experiment [6]. Further, the GI50 in [7] was 22.4 µM (inactive); in [8], 14.6 µM (inactive); in experiment [9] it was 25.4 µM (inactive); in experiment [10] it was 12.2 µM (inactive); in experiment [11], 17.3 µM (inactive); in [12], 24.9 µM (inactive). The GI50 in [13] is 22 µM (inactive); in experiment [14], 16 µM (inactive); in experiment [15], 17.3 µM (inactive); in experiment [16], 19.3 µM (inactive); in experiment [17] it was 15.3 µM (inactive); in experiment [18] it was 23.1 µM (inactive).
For the compound `CC[S+](C)c1ccc(-c2c3nc(c(-c4ccc([S+](C)CC)cc4)c4ccc([nH]4)c(-c4ccc([S+](C)CC)cc4)c4nc(c(-c5ccc([S+](C)CC)cc5)c5ccc2[nH]5)C=C4)C=C3)cc1.[O-][Cl+3]([O-])([O-])[O-].[O-][Cl+3]([O-])([O-])[O-].[O-][Cl+3]([O-])([O-])[O-].[O-][Cl+3]([O-])([O-])[O-]` (stereo not given), the GI50 was 30.4 µM (inactive) in [1]; 4.4 µM (inactive) in experiment [2]; 38.6 µM (inactive) in experiment [3]; 24.3 µM (inactive) in experiment [4]; 22 µM (inactive) in [5]; 11.3 µM (inactive) in experiment [6]. For the same compound, the GI50 in experiment [7] is 18.9 µM (inactive); in [8], 27.9 µM (inactive); in experiment [9], 24.9 µM (inactive); in experiment [10], 18.5 µM (inactive); in [11], 35.9 µM (inactive); in experiment [12], 22.9 µM (inactive). Further, the GI50 in [13] was 36.6 µM (inactive); in [14] it was 56.9 µM (inactive); in experiment [15], 10.1 µM (inactive); in experiment [16] it was 20 µM (inactive); in experiment [17], 18.9 µM (inactive); in [18] it was 13.9 µM (inactive).
For `COc1ccc2nc3ccccc3c(NCCCCCN(CCCl)CCCl)c2c1`, the GI50 in experiment [1] is 0.192 µM (active); in [2] it was 0.524 µM (active); in experiment [3] it was 0.0863 µM (active); in experiment [4] it was 0.0462 µM (active); in [5], < 0.01 µM (active); in experiment [6] it was 0.0294 µM (active). In addition, the 50% growth inhibitory concentration (GI50) in [7] was 0.0151 µM (active); in experiment [8], 0.0295 µM (active); in [9] it was 0.0581 µM (active); in [10], < 0.01 µM (active); in [19], 0.192 µM (active); in [11], < 0.0301 µM (active). In addition, the concentration for 50% growth inhibition (GI50) in experiment [12] was 0.0274 µM (active); in experiment [13] it was 0.206 µM (active); in experiment [20], < 0.01 µM (active); in experiment [14] it was 0.0675 µM (active); in experiment [15], 0.112 µM (active); in experiment [16] it was 0.0165 µM (active). The GI50 in experiment [17] is 0.214 µM (active); in experiment [18], 0.0229 µM (active).
